Values of other authors, collected in US8063151B2, “Methods for manufacturing copolymers having 1-methyl-2-methoxyethyl moieties and use of same” (Abbott Laboratories, priority 2006, dated 2011).

Details: comparison with ethanol

Q: Which “toxicity compared with other solvents” value does the source give for `COCC(C)O` (stereo not shown) [1-methoxy-2-propanol] here?
A: Its value is “in a range more similar to ethanol”.
